Earlier results as cited in patent publication US9669099B2, “Pine bark extract and black pepper essential oil with anti-inflammatory and anti-arthritic action and method of preparing same” (priority 2015, dated 2017).

How the values were obtained:
leukotriene production = conditions: leukotriene as a mediator of inflammation
[1] = system: TNF-α (Tumor Necrosis Factor alpha); conditions: fibroblast cultures, all animals assessed

| SMILES | inhibitor of leukotriene production (leukotriene production) | further results |
| --- | --- | --- |
| CC(C)=CCCC(C)=CC=O [citral] | effective as an inhibitor | – |
| CC(C)=CCC/C(C)=C/CO [geraniol] | effective as an inhibitor | – |
| CC1=CC[C@@H]2C[C@H]1C2(C)C [(+)-α-pinene] | effective as an inhibitor | – |
| C=CC(C)(O)CCC=C(C)C (racemic) [(±)-linalool] | effective as an inhibitor | – |
| CC1=CC=C(C(C)C)CC1 [α-terpinene] | effective as an inhibitor | – |
| C/C1=C\CC/C(C)=C/CC(C)(C)/C=C/C1 [Alpha-humulene] | – | inhibition of LPS-induced NF-kB activation (NF-kB activation): inhibit; inhibition of LPS-induced neutrophil migration (neutrophil migration): inhibit; prevention of production of proinflammatory cytokines TNF-a and IL-1b (TNF-a and IL-1b): ability to prevent; prevention of in vivo up-regulation of kinin B1 receptors (kinin B1 receptors): ability to prevent |
| CC1=CC[C@H]2C[C@@H]1C2(C)C [(−)-α-pinene] | effective as an inhibitor | – |
| CC1=C[C@@H](O)[C@@H]2C[C@H]1C2(C)C (relative stereo) [(+)-cis-verbenol] | effective as an inhibitor | – |
| CC1=CCC(C(C)C)=CC1 [γ-terpinene] | effective as an inhibitor | – |
| C=C(C)[C@H]1CC=C(C)CC1 [limonene] | – | inhibition of TNF-α [1]: inhibition of TNF-α |
| C=C1CC/C=C(\C)CC[C@@H]2[C@@H]1CC2(C)C [Beta-caryophyllene] | – | inhibition of LPS-induced NF-kB activation (NF-kB activation): inhibit; inhibition of LPS-induced neutrophil migration (neutrophil migration): inhibit |
| C=C(C)C1CC=C(C)CC1 (single isomer, unassigned; (+)) [(+)-limonene] | effective as an inhibitor | – |
| CC1=CCCC(C)(C)C1C=O (stereo not drawn) [α-cyclocitral] | effective as an inhibitor | – |
| CC1CCC(C(C)C)C(O)C1 (single isomer, unassigned; (-)) [(−)-menthol] | effective as an inhibitor | – |
| C=CC(=C)CCC=C(C)C [β-myrcene] | effective as an inhibitor | – |
